Reference: paper PMC7534320 (Journal of Enzyme Inhibition and Medicinal Chemistry, 2020)
Values after ≈ are worked out from the molar mass of the structure shown. Read-outs that look alike come from different tables or passages of the source.

What was measured:
[1] = PAMPA gastrointestinal (GIT) permeability; format: in vitro ADME
From the text: (§1) In vitro gastrointestinal (GIT) and blood–brain barrier (BBB) permeability was studied using the PAMPA model (Parallel Artificial Membrane Permeability Assay). The sandwich consists of two 96-well microfilter plates. The PAMPA system contains two chambers: the donor at the bottom and the acceptor chamber at the top. The chambers are separated by a 120-μm-thick microfilter disc coated with a 20% (w/v) dodecane solution of a lecithin mixture (Pion, Inc.). Before adding samples to the donor compartments, the samples were dissolved in DMSO. The donor solution was adjusted to pH ≈ 6.8 for GIT application and to pH ≈ 7.4 for BBB application using 0.5 M NaOH. The plates were combined and then incubated for 3 h for GIT model and 4 h for BBB model in a humidity-saturated atmosphere at the temperature set at 310 K. The apparent permeability coefficient (Papp) was calculated according to the following equation: Papp=−ln(1−CA/Cequilibrium)/S×(1/VD+1/VA)×t where VD – donor volume, VA – acceptor volume, Cequilibrium – equilibrium concentration Cequilibrium=CD×VD+ CA×VA/VD+VA, S – membrane area, t – incubation time (in seconds).

[2] = PAMPA blood–brain barrier (BBB) permeability; format: in vitro ADME
From the text: as §1
Compounds with high permeability have the Papp value at the level >4.0 × 10^−6 cm s^−1 [28].

C. difficile ATCC 9689 = assay: Agar well diffusion technique; format: cell-based; conditions: 25 mg/mL dissolved in methanol and filtered
C. butyricum ATTC 860 = format: cell-based; conditions: 25 mg/mL dissolved in methanol and filtered
[3] = system: L. monocytogenes ATCC 7644; assay: Agar well diffusion technique; format: cell-based; conditions: 25 mg/mL dissolved in methanol and filtered
B. subtillis ATCC 238557 = assay: Agar well diffusion technique; format: cell-based; conditions: 25 mg/mL dissolved in methanol and filtered
E. faecalis ATTC 29212 = assay: Agar well diffusion technique; format: cell-based; conditions: 25 mg/mL dissolved in methanol and filtered
S. aureus ATCC 25923 = assay: Agar well diffusion technique; format: cell-based; conditions: 25 mg/mL dissolved in methanol and filtered
S. pyrogenes ATCC 19615 = assay: Agar well diffusion technique; format: cell-based; conditions: 25 mg/mL dissolved in methanol and filtered
E. coli ATCC 25922 = assay: Agar well diffusion technique; format: cell-based; conditions: 25 mg/mL dissolved in methanol and filtered
K. pneumoniae ATCC 31488 = assay: Agar well diffusion technique; format: cell-based; conditions: 25 mg/mL dissolved in methanol and filtered
P. mirabilis ATCC 12453 = assay: Agar well diffusion technique; format: cell-based; conditions: 25 mg/mL dissolved in methanol and filtered
[4] = system: S. typhimurium ATCC 14028; assay: Agar well diffusion technique; format: cell-based; conditions: 25 mg/mL dissolved in methanol and filtered
[5] = system: P. aereuginosa ATCC 27853; assay: Agar well diffusion technique; format: cell-based; conditions: 25 mg/mL dissolved in methanol and filtered
E. aerogenes ATCC 13048 = assay: Agar well diffusion technique; format: cell-based; conditions: 25 mg/mL dissolved in methanol and filtered
C. krusei ATCC 14243 = assay: Agar well diffusion technique; format: cell-based; conditions: 25 mg/mL dissolved in methanol and filtered
C. albicans ATTC 10231 = assay: Agar well diffusion technique; format: cell-based; conditions: 25 mg/mL dissolved in methanol and filtered
[6] = Antioxidant activity, DPPH radical reaction; format: biochemical; conditions: free substance; linear regression
Description: The antioxidant activity was evaluated using the DPPH radical reaction. The investigation of antioxidant properties was performed spectrophotometrically, according to Studzińska-Sroka’s modifications. […] 25.0 µL of DPPH solution was mixed with 175.0 µL of studied solutions in a 96-well plate, and then the plate was shaken and incubated in darkness for half an hour at room temperature. Subsequently, the absorbance (A) was measured at the wavelength set at 517 nm against the blank (the mixture of DPPH solution and methanol). The inhibition of the DPPH radical by the studied samples was calculated due to the following equation: A=Ao − Ai/Ao x 100% where Ao is the absorbance of the control sample, Ai is the absorbance of studied samples. Every determination was repeated six times. As a reference, vitamin C was used. IC50 values, which determine the concentration of the substance that inhibits the formation of DPPH by 50%, were determined by linear regression analysis.

[7] = piperine after incorporation into the cavity of β-cyclodextrin; cited from earlier work

Compound: COc1cc(/C=C/C(=O)CC(=O)/C=C/c2ccc(O)c(OC)c2)ccc1O [Curcumin, Diferuloylmethane]
- permeability classification, GIT PAMPA [1]: well permeable
- Papp at 3 h ([1]; pH 6.8): 3.46 ×10⁻⁶ cm/s
- permeability classification, BBB PAMPA ([2]; PAMPA): well permeable
- Papp at 4 h ([2]; PAMPA, pH 7.4): 31.1 ×10⁻⁶ cm/s
- Inhibition zone (mm) – Agar well diffusion technique (C. difficile ATCC 9689): 6.5 mm
- Inhibition zone (mm) – Agar well diffusion technique (C. butyricum ATTC 860): 5.5 mm
- Inhibition zone (mm) – Agar well diffusion technique [3]: 5.0 mm
- Inhibition zone (mm) – Agar well diffusion technique (B. subtillis ATCC 238557): 8.5 mm
- Inhibition zone (mm) – Agar well diffusion technique (E. faecalis ATTC 29212): 10.5 mm
- Inhibition zone (mm) – Agar well diffusion technique (S. aureus ATCC 25923): 4.0 mm
- Inhibition zone (mm) – Agar well diffusion technique (S. pyrogenes ATCC 19615): 5.0 mm
- Inhibition zone (mm) – Agar well diffusion technique (E. coli ATCC 25922): 3.0 mm
- Inhibition zone (mm) – Agar well diffusion technique (K. pneumoniae ATCC 31488): 2.5 mm
- Inhibition zone (mm) – Agar well diffusion technique (P. mirabilis ATCC 12453): 3.0 mm
- Inhibition zone (mm) – Agar well diffusion technique [4]: 5.5 mm
- Inhibition zone (mm) – Agar well diffusion technique [5]: 2.5 mm
- Inhibition zone (mm) – Agar well diffusion technique (E. aerogenes ATCC 13048): 2.5 mm
- Inhibition zone (mm) – Agar well diffusion technique (C. krusei ATCC 14243): 2.0 mm
- Inhibition zone (mm) – Agar well diffusion technique (C. albicans ATTC 10231): 4.5 mm

Compound: O=C(/C=C/C=C/c1ccc2c(c1)OCO2)N1CCCCC1 [Piperine, piperine]
- Papp at 3 h ([1]; donor pH ≈ 6.8, 3 h, 310 K, read-out: Papp of piperine, GIT PAMPA): 19 ×10⁻⁶ cm/s
- Papp at 4 h ([2]; PAMPA, donor pH ≈ 7.4, 4 h, 310 K, read-out: Papp of piperine, BBB PAMPA): 11.9 ×10⁻⁶ cm/s
- permeability classification, BBB PAMPA ([2]; Papp > 4.0 × 10^−6 cm s^−1 = high permeability): well permeable
- IC50 DPPH [6]: 38.945 mg/mL (≈ 136 mM)
- Inhibition zone (mm) – Agar well diffusion technique (C. difficile ATCC 9689): 3.5 mm
- Inhibition zone (mm) – Agar well diffusion technique (C. butyricum ATTC 860): 5.5 mm
- Inhibition zone (mm) – Agar well diffusion technique [3]: 5.0 mm
- Inhibition zone (mm) – Agar well diffusion technique (B. subtillis ATCC 238557): 7.0 mm
- Inhibition zone (mm) – Agar well diffusion technique (E. faecalis ATTC 29212): 9.0 mm
- Inhibition zone (mm) – Agar well diffusion technique (S. aureus ATCC 25923): 3.0 mm
- Inhibition zone (mm) – Agar well diffusion technique (S. pyrogenes ATCC 19615): 2.5 mm
- Inhibition zone (mm) – Agar well diffusion technique (E. coli ATCC 25922): 2.0 mm
- Inhibition zone (mm) – Agar well diffusion technique (K. pneumoniae ATCC 31488): 2.0 mm
- Inhibition zone (mm) – Agar well diffusion technique (P. mirabilis ATCC 12453): 1.0 mm
- Inhibition zone (mm) – Agar well diffusion technique [4]: 1.5 mm
- Inhibition zone (mm) – Agar well diffusion technique [5]: 1.5 mm
- Inhibition zone (mm) – Agar well diffusion technique (E. aerogenes ATCC 13048): 1.0 mm
- Inhibition zone (mm) – Agar well diffusion technique (C. krusei ATCC 14243): 2.5 mm
- Inhibition zone (mm) – Agar well diffusion technique (C. albicans ATTC 10231): 2.5 mm
- increase of solubility of piperine [7]: about 16 folds

Compound: O=C1O[C@H]([C@@H](O)CO)C(O)=C1O [Vitamin C]
- IC50 DPPH [6]: 0.066 mg/mL (≈ 0.375 mM)
